Here are results for five molecules from ChEMBL document CHEMBL2029216, “Synthesis and evaluation of [18F]Fluorobutyl ethacrynic amide: a potential PET tracer for studying glutathione transferase” (Bioorg Med Chem Lett, 2012).

A word on the IC50: it is the concentration needed to halve the response being measured. Usually logP stands for the decadic logarithm of the partition coefficient of the neutral form, usually between octanol and water. In general, half-life refers to the time in which the quantity being followed falls by half. Read a high half-life as slow loss.

Each structure is given as a SMILES string.

The subject of one data set is A549. Kind of data set: Cytotoxicity against human A549 cells. Format: functional, cell-based.
The next data set deals with MCF7. Kind of data set: Cytotoxicity against human MCF7 cells. In kind it is functional, cell-based.
In a further data set the test system is IMR-90. Kind of data set: Cytotoxicity against human IMR90 cells. Format: cell-based.
Data set [1] relates to Liver. Kind of data set: Drug uptake in Sprague-Dawley rat liver expressing GSTalpha assessed as homogeneous distribution of [18F]FBuEA-GSH10 complex at 717 uCi/mL, iv after 120 mins by PET analysis. In kind it is ADME, organism-based. Particulars: in vivo, 2 h; call rule not given here.
The subject of data set [2] is Liver. Kind of data set: Drug uptake in TAA-induced cholangiocarcinoma model of rat liver expressing GSTalpha assessed as heterogeneous distribution of [18F]FBuEA-GSH10 complex at 569 uCi/0.6 mL, iv after 120 mins by PET analysis. The conditions noted are these: in vivo, 2 h. Format: ADME, organism-based.
The subject of another data set is Urinary bladder. Kind of data set: Drug uptake in mouse bladder after 5 mins. Particulars: in vivo. In kind it is ADME, tissue-based.
The test system of data set [3] is Liver. Kind of data set: Drug uptake in mouse liver after 5 mins. In kind it is ADME, tissue-based. Particulars: in vivo.
Another data set relates to Kidney. Kind of data set: Drug uptake in mouse kidney after 5 mins. Format: ADME, tissue-based. The conditions noted are these: in vivo.
Data set [4] is described as follows: Octanol-water partition coefficient, Log P of the compound at 12.6 uCi by Shake-flask method. Format: physicochemical.
Data set [5] in a line: Drug uptake in 18 weeks TAA treated rat TAA-induced cholangiocarcinoma model tumor expressing GSTalpha assessed as hot spot using [18F]FDG at 486 uCi/0.23 mL, iv after 30 mins by PET analysis. Particulars: in vivo, 0.5 h. Format: ADME, organism-based, Neoplasm.
Data set [6] in a line: Drug uptake in TAA-induced cholangiocarcinoma model of rat tumor expressing GSTalpha assessed as cold spot using [18F]FDG at 486 uCi/0.23 mL, iv after 5 days by PET analysis. In kind it is ADME, organism-based, Neoplasm. Particulars: in vivo, 120 h.
A short description of data set [7]: Drug uptake in 23 weeks TAA treated rat TAA-induced cholangiocarcinoma model tumor expressing GSTalpha assessed as cold spot using [18F]FDG at 801 uCi/0.23 mL, iv after 5 to 10 mins by PET analysis. In kind it is ADME, organism-based, Neoplasm. The conditions noted are these: in vivo.
A short description of data set [8]: Half life in rat plasma at 6.3 MBq, iv by HPLC analysis. In kind it is ADME, organism-based.
The test system of another data set is Nucleic Acid. Kind of data set: Ratio of drug level in tumor to liver in rat TAA-induced cholangiocarcinoma model. In kind it is ADME, tissue-based. Particulars: in vivo.

Consider `C=C(CC)C(=O)c1ccc(OCC(=O)NCCCC)c(Cl)c1Cl`, for which the IC50 came to 13 µM in the data set with A549 and 4 µM in the data set with MCF7.

In the case of `C=C(CC)C(=O)c1ccc(OCC(=O)NCCCCF)c(Cl)c1Cl`, the 50% inhibitory concentration (IC50) in the data set on A549 worked out at 8 µM; in the data set with MCF7, 3 µM; with IMR-90, 18 µM.

In the case of `C=C(CC)C(=O)c1ccc(OCC(=O)NCCCC[18F])c(Cl)c1Cl`, the Drug uptake entry (in the data set with Liver [1]; in the data set on Liver [2]; in the data set with Urinary bladder; with Liver [3]; with Kidney; in data set [5]) was “Active” throughout. The Drug uptake result in data set [6] and in data set [7] was “Active” each time. This molecule registered a logP in [4] of 1.47.

In the data set on A549, `C=C(CC)C(=O)c1ccc(OCC(=O)O)c(Cl)c1Cl` [ETHACRYNIC ACID] gave an IC50 of 84 µM. The same molecule had a half-life in data set [8] of 30 min.

Turning to `OC[C@H]1O[C@@H](O)[C@H]([18F])[C@@H](O)[C@@H]1O` [FLUDEOXYGLUCOSE-F18], the Ratio with Nucleic Acid came to 1.6.
